Key:
[1] = tested on: 3MR or INK-ATTAC mice exposed to cigarette smoke; assay: Chronic cigarette smoke exposure model (COPD); type: in vivo, mouse; conditions: after 2 months of cigarette smoke exposure; vs untreated controls
Protocol: In a second animal model for pulmonary diseases (e.g., COPD), mice were exposed to cigarette smoke. The effect of a senolytic agent on the mice exposed to smoke is assessed by senescent cell clearance, lung function, and histopathology.
Six week-old 3MR (n=35) or INK-ATTAC (n=35) mice were chronically exposed to cigarette smoke generated from a Teague TE-10 system, an automatically-controlled cigarette smoking machine that produces a combination of side-stream and mainstream cigarette smoke in a chamber, which is transported to a collecting and mixing chamber where varying amounts of air is mixed with the smoke mixture. The COPD protocol was adapted from the COPD core facility at Johns Hopkins University (at Internet site web.jhu.edu/Biswal/exposure_core/copd.html#Cigarette_Smoke) (Rangasamy et al., 2004, J. Clin. Invest. 114:1248-1259; Yao et al., 2012, J. Clin. Invest. 122:2032-2045). Mice received a total of 6 hours of cigarette smoke exposure per day, 5 days a week for 6 months. Each lighted cigarette (3R4F research cigarettes containing 10.9 mg of total particulate matter (TPM), 9.4 mg of tar, and 0.726 mg of nicotine, and 11.9 mg carbon monoxide per cigarette [University of Kentucky, Lexington, KY]) was puffed for 2 seconds and once every minute for a total of 8 puffs, with the flow rate of 1.05 L/min, to provide a standard puff of 35 cm^3. The smoke machine was adjusted to produce a mixture of side stream smoke (89%) and mainstream smoke (11%) by smoldering 2 cigarettes at one time. The smoke chamber atmosphere was monitored for total suspended particulates (80-120 mg/m^3) and carbon monoxide (350 ppm). Beginning at day 7, (10) INK-ATTAC and (10) 3MR mice were treated with AP20187 (3× per week) or gancyclovir (5 consecutive days of treatment followed by 16 days off drug, repeated until the end of the experiment), respectively. An equal number of mice received the corresponding vehicle. The remaining […] (15 INK-ATTAC and 15 3MR) were evenly split with 5 of each genetically modified strain placed into three different treatment groups. One group (n=10) received Nutlin-3A (25 mg/kg dissolved in 10% DMSO/3% Tween-20 in PBS, treated 14 days consecutively followed by 14 days off drug, repeated until the end of the experiment). […]
After two months of cigarette smoke exposure, lung function was assessed by monitoring oxygen saturation using the MouseSTAT PhysioSuite pulse oximeter (Kent Scientific). […] Mice were monitored for 30 seconds and the average peripheral capillary oxygen saturation (SpO2) measurement over this duration was calculated.

[2] = tested on: osteoarthritic joint of mice after ACL surgery; assay: Osteoarthritis mouse model (ACL surgery); type: in vivo
Protocol: A table and schematic of two osteoarthritis mouse model study designs are presented in FIGS. 35 and 36, respectively. The two treatment studies were designed to determine the effect of removing senescent cells in an animal model of osteoarthritis.
Parallel studies were performed. One study investigated the effect of eliminating senescent cells with ganciclovir (GCV) in 3MR mice. Mice underwent surgery to cut the anterior cruciate ligament of one rear limb to induce osteoarthritis in the joint of that limb. During week 2 post-surgery, 3MR mice received 2.5 μg GCV to the operated knee by intra-articular injection, qd for 5 days, with a 2nd treatment (2.5 μg GCV qd for 5 days) during week 4 post-surgery. At the end of 4 weeks post-surgery, operated joints of the mice were monitored for presence of senescent cells, assessed for function, monitored for markers of inflammation, and underwent histological assessment.
In a parallel study, C57BL/6J mice underwent surgery to cut the anterior cruciate ligament of one rear limb to induce osteoarthritis in the joint of that limb. During week 3 and week 4 post-surgery, the mice were treated with 5.8 μg of Nutlin-3A (n=7) per operated knee by intra-articular injection, qod for 2 weeks. At the end of 4 weeks post-surgery, joints of the mice were monitored for presence of senescent cells, assessed for function, monitored for markers of inflammation, and underwent histological assessment.
Two control groups of mice were included in the studies performed: one group comprising C57BL/6J or 3MR mice that had undergone a sham surgery (n=3) (i.e., surgical procedures followed except for cutting the ACL) and intra-articular injections of vehicle parallel to the GCV-treated group; and one group comprising C57BL/6J or 3MR mice that had undergone an ACL surgery and received intra-articular injections of vehicle (n=5) parallel to the GCV-treated group.
RNA from the operated joints of mice from the Nutlin-3A treated mice was analyzed for expression of SASP factors (mmp3, IL-6) and senescence markers (p16). qRT-PCR was performed to detect mRNA levels. […] RNA from the operated joints of mice was also analyzed for expression of type 2 collagen and compared with expression of actin as a control.
Function of the limbs was assessed 4 weeks post-surgery by a weight bearing test to determine which leg the mice favored (FIG. 39). The mice were allowed to acclimate to the chamber on at least 3 occasions prior to taking measurements. Mice were maneuvered inside the chamber to stand with 1 hind paw on each scale. The weight that was placed on each hind limb was measured over a 3-second period. At least 3 separate measurements were made for each animal at each time point. The results were expressed as the percentage of the weight placed on the operated limb versus the contralateral unoperated limb.
The function of the limbs was also assessed at 4 weeks post-surgery by hotplate analysis to show sensitivity and reaction to pain stimulus. In brief, a mouse was placed on a hotplate at 55° C. When placed on the hot surface of the plate, mice will lift their paws and lick them (paw-lick response) due to attainment of pain threshold. The latency period for the hind limb response (paw-lick response) is recorded as response time.
Histopathology of osteoarthritis induced by ACL surgery illustrated that the proteoglycan layer was destroyed. […] Clearing of senescent cells from the 3MR mice treated with GCV, which kills senescent cells, had the same impact on pathophysiology of osteoarthritis as Nutlin-3A.

Compound | SpO2 levels [1] | Type 2 collagen expression in operated joints ([2]; 5.8 μg per knee intra-articular, vs untreated mice) | Weight bearing test (weight on operated vs unoperated limb) ([2]; 4 weeks post-surgery) | Hotplate paw-lick response time ([2]; 55° C., 4 weeks post-surgery) | Histopathology: destruction of the proteoglycan layer ([2]; C57BL/6J, 5.8 μg per knee intra-articular) | Senescent cells in the joint (p16 and SASP factor mRNA, qRT-PCR) ([2]; C57BL/6J, 5.8 μg per knee intra-articular qod 2 weeks, 4 weeks post-surgery) | Histopathology: impact on pathophysiology of osteoarthritis ([2]; 3MR mice, 2.5 μg intra-articular qd 5 days, weeks 2 and 4)
COc1ccc(C2=N[C@@H](c3ccc(Cl)cc3)[C@@H](c3ccc(Cl)cc3)N2C(=O)N2CCNC(=O)C2)c(OC(C)C)c1 [Nutlin-3a] | statistically significant increases | drives collagen production | abrogates this effect | decreases the response time in a significant manner | completely abrogated this effect | clears senescent cells from the joint | –
Nc1nc(O)c2ncn(COC(CO)CO)c2n1 [ganciclovir] | statistically significant increases | – | – | – | – | – | same impact
